Measured values taken from patent publication US7718190B2, “Self forming, thermodynamically stable liposomes and their applications” (priority 2000, dated 2010).
One block for each compound: values may come before it.

Assays:
[1] = Dissolution of compounds in PEG-12 Glyceryl Dioleate; format: physicochemical; conditions: for Dissolution in PEG-12 Glyceryl Dioleate (observation): before addition of water
Procedure: It will be appreciated that, while liposomes form spontaneously at the temperature of formation, cooling of liposomes after formation results in liposomes in trapped kinetic states. To minimize distortions in liposome structure upon such cooling, sterols such as cholesterol may be mixed with the lipid before liposome formation. It has been observed that cholesterol may be dissolved in PEG-12 GDO at up to about 10 percent by weight.
Methotrexate (Sigma) was dissolved in PEG-12 Glyceryl Dioleate and gently mixed for about 5 minutes. […] Deionized water was slowly added to the solution and gently mixed. The resultant mixture was a yellow, opaque solution.
Tretinoin (all-trans retinoic acid), 6 mg, was dissolved in 500 ul of PEG-12 Glyceryl Dioleate. […] Distilled water, 4.5 ml, was added to the mixture and gently mixed. This yielded a concentration of […]. […] This solution can easily be incorporated into a cream, gel or lotion dosage form.

[2] = Spontaneous liposome formation of single lipids mixed with aqueous solution; format: physicochemical
Procedure: Lipids were tested at 2 weight percent in aqueous solution. Note that GDL means glycerol dilaurate, GDO means glycerol dioleate, GDM means glycerol dimyristate, GDP means glycerol dipalmitate, and GDS means glycerol distearate. For each lipid, the number after “PEG” indicates the numbers of C2H4O subunits in the PEG chain. The unsaturated dioleate lipids have similar packing parameters to the saturated dimyristate lipids.
Single lipids were tested for their ability to spontaneously form liposomes when mixed with an aqueous solution. PEG-12 GDO was obtained from Global 7 (New Jersey). All other lipids were synthesized for the experiment. For each experiment, water and lipid were separately equilibrated at the appropriate temperature. Two weight percent lipid was added to the aqueous solution, and the solution was analyzed for the presence of liposomes by optical light microscopy, cryo TEM, freeze fracture TEM, or hot stage microscopy.

- Amount dissolved in PEG-12 GDO ([1]; in PEG-12 GDO): up to 10 percent by weight
Compound: CC(C)CCC[C@@H](C)[C@H]1CC[C@H]2[C@@H]3CC=C4C[C@@H](O)CC[C@]4(C)[C@H]3CC[C@]12C [cholesterol]

- Spontaneous Liposomes at 20° C. ([2]; 2 weight percent lipid in aqueous solution, 20° C.): YES
- Spontaneous Liposomes at 37° C. ([2]; 2 weight percent lipid in aqueous solution, 37° C.): YES
- Spontaneous Liposomes at 60° C. ([2]; 2 weight percent lipid in aqueous solution, 60° C.): YES
Compound: PEG-12 Glyceryl Dioleate [PEG-12 GDO]
- Spontaneous liposome formation ([2]; all temperatures tested (20, 37, 60° C.)): spontaneously forms liposomes at all temperatures tested

- Dissolution in PEG-12 Glyceryl Dioleate (observation) [1]: Dissolution was complete
Compound: CC1=C(/C=C/C(C)=C/C=C/C(C)=C/C(=O)O)C(C)(C)CCC1 [Tretinoin]

- Dissolution in PEG-12 Glyceryl Dioleate (observation) [1]: clear solution
Compound: CN(Cc1cnc2nc(N)nc(N)c2n1)c1ccc(C(=O)N[C@@H](CCC(=O)O)C(=O)O)cc1 [Methotrexate]
